Measured values from paper PMC11767661 (Molecules, 2025).
“Also recorded” adds a separate entry of the source.

Key:
[1] = Peptide hydrolysis in Hepes buffer alone or with Cu2+/Zn2+, followed by HPLC-ESI/MS; type: physicochemical; details: 50 mM HEPES pH 7.4, 4 °C, LC-MS relative % area
Method: Herein, we analyzed the hydrolytic process of Aβ peptides in 50 mM Hepes buffer at 7.4 physiological pH over two weeks at two distinct temperatures, 4 °C and 37 °C, using mass spectrometry coupled with high-performance liquid chromatography (HPLC-MS) for precise analysis. Additionally, we explored the impact of copper(II) or zinc(II) ions, each added in a 1:1 molar ratio to the peptides, on the resulting hydrolytic fragmentation patterns. It is worth noting that metal binding only occurs at the N-terminal region of Aβ peptides, specifically interacting with histidine residues. The commonly accepted peptide sequence 1–16 (^1[…]^16, Aβ16) is widely used as a model for this interaction due to its inclusion of all three histidines (His6, His13, and His14) known for their key roles in coordinating metal ions. Therefore, the initial studies were performed on this short peptide.
General. All chemicals were of reagent grade and purchased from Sigma-Aldrich. Preparative HPLC was carried out with a Shimadzu LC-20AD Prominence instrument equipped with a diode array detector. Mass spectra and LCMS/MS data were performed with an LCQ ADV MAX ion-trap mass spectrometer equipped with an ESI ion source. The instrument was run in an automated LC-MS/MS mode and using a surveyor HPLC system (Thermo Finnigan, San Jose, CA, USA) equipped with a Phenomenex Jupiter 4u Proteo column (4 μm, 150 × 2.0 mm). For the analysis of peptide fragments, Bioworks 3.1 and Xcalibur 2.0.7 SP1 software were used (Thermo Finnigan, San Jose, CA, USA).
Peptide hydrolysis in the presence of metal ions. Solutions of Aβ16 and Aβ28 (500 µM) alone or with the addition of Cu(NO3)2 (1 eqv., 500 µM) or ZnCl2 (1 eqv., 500 µM) were prepared in 50 mM Hepes buffer at pH 7.4. The solutions were then incubated at 4 °C or 37 °C (only for Aβ16) in atmospheric air and every 7 days aliquots were taken, diluted to the 25 µM final concentration with Hepes buffer, and analyzed by HPLC-ESI/MS. The solution of R1τ, Ac-R1τ, αSyn15, and Ac-αSyn15 (25 µM) fragments were incubated in 50 mM Hepes buffer at 4 °C for 14 days; at the same time, solutions also containing copper(II) or zinc(II) in a 1:1 molar ratio respect to peptide were prepared. The elution was performed by using 0.1% HCOOH in distilled water (solvent A) and 0.1% HCOOH in acetonitrile (solvent B), with a flow rate of 0.2 mL/min. Elution started with 98% solvent A for 5 min, followed by a linear gradient from 98 to 55% A in 55 min. […] For the analysis of peptide fragments, Bioworks 3.1 and Xcalibur 2.0.7 SP1 software were used (Thermo Finnigan, San Jose, CA, USA).

[2] = complex of copper(II) with the buffer; cited from earlier work
Text: Shifting in fragmentation sites could be related to structural alterations induced by the N-protection. It is commonly accepted that the N-capping ...

[3] = 50 mM Hepes buffer at pH 7.4, peptide alone; details: 4 °C, up to 14 days
[4] = 50 mM HEPES buffer at pH 7.4 with 25 µM copper(II) nitrate; details: 4 °C, up to 14 days
[5] = 50 mM HEPES buffer at pH 7.4 with 25 µM zinc(II) chloride; details: 4 °C, up to 14 days
[6] = Aβ28 500 µM + 500 µM zinc(II) chloride, 14 days
[7] = Aβ28 500 µM + 500 µM zinc(II) chloride, 21 days
[8] = Aβ28 500 µM + 500 µM copper(II) nitrate, 14 days
[9] = Aβ28 500 µM + 500 µM copper(II) nitrate, 21 days

Molecule	Remaining amount of Aβ28 and species detected by LC-MS (Table S2) [1, 6]	Remaining amount of Aβ28 and species detected by LC-MS (Table S2) [1, 7]	Remaining amount of Aβ28 and species detected by LC-MS (Table S2) ([1]; Aβ28 500 µM alone, 14 days)	cleaved bond [3]	cleaved bond [4]	cleaved bond [5]	Remaining amount of Aβ28 and species detected by LC-MS (Table S2) [1, 8]	Remaining amount of Aβ28 and species detected by LC-MS (Table S2) [1, 9]	also measured
Q.KLVFFAEDVGSNK [hydrolytic fragment 16-28 of Aβ28]	10%	13%	16%						
O=S(=O)(O)CCN1CCN(CCO)CC1 [Hepes]									Copper(II) complex formation constant (log K) [2]: 3
Ac-^1MDVFMKGLSKAKEGV^15-NH2				K6-G7, 14 days; also recorded: K10-A11, 14 days; also recorded: L8-S9, 14 days	L8-S9, 14 days	L8-S9, 14 days			
K.LVFFAEDVGSNK [hydrolytic fragment 17-28 of Aβ28]	5%	4%	22%				1%	1%	
DAEFRHDSGYEVHHQKLVFFAE.D [hydrolytic fragment 1-22 of Aβ28]	9%	7%					3%	5%	
H-MDVFMKGLSKAKEGV-NH2									amount (%) of intact peptide after hydrolysis: > 90%
DAEFRHDSGYEVHHQKLV.F [hydrolytic fragment 1-18 of Aβ28]	7%	10%	5%				4%	7%	
DAEFRHDSGYEVHHQKLVF.F [hydrolytic fragment 1-19 of Aβ28]	7%	6%					1%	1%	
E.FRHDSGYEVHHQ.K [hydrolytic fragment 4-15 of Aβ28]			2%						
^1MDVFMKGLSKAKEGV^15-NH2				K6-G7, 14 days; also recorded: F4-M5, 14 days; also recorded: L8-S9, 14 days	K12-E13, 14 days; also recorded: K6-G7, 14 days; also recorded: F4-M5, 14 days; also recorded: L8-S9, 14 days	K6-G7, 14 days; also recorded: F4-M5, 14 days; also recorded: L8-S9, 14 days			
Ac-^256VKSKIGSTENLKHQPGGG^273-NH2				K259-I260, 14 days; also recorded: G261-S262, 14 days; also recorded: I260-G261, 14 days; also recorded: E264-N265, 14 days; also recorded: S258-K259, 14 days; also recorded: Q269-P270, 14 days; also recorded: K267-H268, 14 days; also recorded: L266-K267, 14 days	G261-S262, 14 days; also recorded: N265-L266, 14 days; also recorded: E264-N265, 14 days	G261-S262, 14 days; also recorded: N265-L266, 14 days; also recorded: E264-N265, 14 days; also recorded: K267-H268, 14 days			
^256VKSKIGSTENLKHQPGGG^273-NH2				G261-S262, 14 days; also recorded: N265-L266, 14 days	N265-L266, 14 days; also recorded: S258-K259, 14 days; also recorded: Q269-P270, 14 days	K259-I260, 14 days; also recorded: I260-G261, 14 days; also recorded: E264-N265, 14 days; also recorded: K267-H268, 14 days			
